What was measured:
Experiment in all cases: biochemical
Design in all cases: Ubiquigent DUB profiler selectivity panel, remaining enzyme activity as % of control
Conditions in all cases: read-out: % of control remaining
UCHL1 = target: T1, UCHL1 (Homo sapiens, UniProt P09936)
T1 sequence (P09936 1-223): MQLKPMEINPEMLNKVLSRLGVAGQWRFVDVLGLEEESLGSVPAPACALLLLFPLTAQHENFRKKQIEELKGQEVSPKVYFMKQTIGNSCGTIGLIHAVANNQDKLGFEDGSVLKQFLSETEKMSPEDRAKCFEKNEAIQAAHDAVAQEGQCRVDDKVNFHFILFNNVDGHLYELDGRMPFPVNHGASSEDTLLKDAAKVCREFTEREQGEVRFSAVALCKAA
Method in brief: (§1)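 In YFP-PRKN-overexpressing hTERT-RPE1 cells, 1 h antimycin A plus oligomycin A (1 μM each) with CMPD-39, then Western blot of TOMM20 ubiquitylation. Target engagement: 2 h compound, then 10 min HA-Ub-PA at 37°C, read as USP30 shift. DUB panel (>40 enzymes) screened at 1-100 μM.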

USP1/UAF1 = USP1/UAF1 (Homo sapiens, UniProt O94782)
Method in brief: as §1

AMSH-LP = target: T2, AMSH-LP (Homo sapiens, UniProt Q96FJ0)
T2 construct: gene STAMBPL1
T2 sequence (Q96FJ0 1-436): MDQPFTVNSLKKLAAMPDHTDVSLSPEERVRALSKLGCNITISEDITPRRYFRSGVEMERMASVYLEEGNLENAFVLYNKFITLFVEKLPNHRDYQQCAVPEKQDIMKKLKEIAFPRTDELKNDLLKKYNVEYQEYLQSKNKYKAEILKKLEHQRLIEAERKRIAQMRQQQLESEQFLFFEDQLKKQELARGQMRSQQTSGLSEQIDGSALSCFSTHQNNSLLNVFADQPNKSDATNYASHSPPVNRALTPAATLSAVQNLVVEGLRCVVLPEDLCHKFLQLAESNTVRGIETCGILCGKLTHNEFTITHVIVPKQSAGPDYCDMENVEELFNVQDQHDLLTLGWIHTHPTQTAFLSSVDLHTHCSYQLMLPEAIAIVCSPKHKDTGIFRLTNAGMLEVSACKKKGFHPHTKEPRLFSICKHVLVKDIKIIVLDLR
Method in brief: as §1

OTUD6A = target: T3, OTUD6A (Homo sapiens, UniProt Q7L8S5)
T3 sequence (Q7L8S5 1-288): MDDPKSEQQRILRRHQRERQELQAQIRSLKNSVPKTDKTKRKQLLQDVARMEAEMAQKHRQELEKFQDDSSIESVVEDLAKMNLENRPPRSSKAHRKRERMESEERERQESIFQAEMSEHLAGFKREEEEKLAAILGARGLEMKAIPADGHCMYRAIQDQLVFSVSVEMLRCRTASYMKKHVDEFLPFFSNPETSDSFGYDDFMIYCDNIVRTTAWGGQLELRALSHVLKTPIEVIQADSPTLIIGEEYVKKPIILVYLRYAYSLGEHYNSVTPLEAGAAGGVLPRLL
Method in brief: as §1

Chain of USP1/UAF1 (O94782 whole entry): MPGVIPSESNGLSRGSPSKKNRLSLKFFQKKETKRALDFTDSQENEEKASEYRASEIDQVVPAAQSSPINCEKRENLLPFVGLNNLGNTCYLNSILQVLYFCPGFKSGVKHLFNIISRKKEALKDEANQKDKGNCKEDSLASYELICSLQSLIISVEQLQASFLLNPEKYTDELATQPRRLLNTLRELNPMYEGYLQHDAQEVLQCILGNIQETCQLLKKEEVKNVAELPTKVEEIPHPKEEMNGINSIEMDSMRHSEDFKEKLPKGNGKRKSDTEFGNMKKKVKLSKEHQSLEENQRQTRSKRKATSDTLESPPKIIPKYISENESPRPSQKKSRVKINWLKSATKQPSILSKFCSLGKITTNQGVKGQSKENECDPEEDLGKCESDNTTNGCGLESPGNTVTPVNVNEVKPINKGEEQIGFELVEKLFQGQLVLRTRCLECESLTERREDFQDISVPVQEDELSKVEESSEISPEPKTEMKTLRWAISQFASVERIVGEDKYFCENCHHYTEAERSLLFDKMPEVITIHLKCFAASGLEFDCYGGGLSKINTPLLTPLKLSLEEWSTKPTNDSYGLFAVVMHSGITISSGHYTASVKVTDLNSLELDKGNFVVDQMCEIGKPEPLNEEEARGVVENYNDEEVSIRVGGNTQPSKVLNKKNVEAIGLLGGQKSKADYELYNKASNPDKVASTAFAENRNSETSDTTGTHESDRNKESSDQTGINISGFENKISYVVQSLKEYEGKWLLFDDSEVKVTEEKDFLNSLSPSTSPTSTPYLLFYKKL
Chain of USP1/UAF1 (Q8TAF3 whole entry partner): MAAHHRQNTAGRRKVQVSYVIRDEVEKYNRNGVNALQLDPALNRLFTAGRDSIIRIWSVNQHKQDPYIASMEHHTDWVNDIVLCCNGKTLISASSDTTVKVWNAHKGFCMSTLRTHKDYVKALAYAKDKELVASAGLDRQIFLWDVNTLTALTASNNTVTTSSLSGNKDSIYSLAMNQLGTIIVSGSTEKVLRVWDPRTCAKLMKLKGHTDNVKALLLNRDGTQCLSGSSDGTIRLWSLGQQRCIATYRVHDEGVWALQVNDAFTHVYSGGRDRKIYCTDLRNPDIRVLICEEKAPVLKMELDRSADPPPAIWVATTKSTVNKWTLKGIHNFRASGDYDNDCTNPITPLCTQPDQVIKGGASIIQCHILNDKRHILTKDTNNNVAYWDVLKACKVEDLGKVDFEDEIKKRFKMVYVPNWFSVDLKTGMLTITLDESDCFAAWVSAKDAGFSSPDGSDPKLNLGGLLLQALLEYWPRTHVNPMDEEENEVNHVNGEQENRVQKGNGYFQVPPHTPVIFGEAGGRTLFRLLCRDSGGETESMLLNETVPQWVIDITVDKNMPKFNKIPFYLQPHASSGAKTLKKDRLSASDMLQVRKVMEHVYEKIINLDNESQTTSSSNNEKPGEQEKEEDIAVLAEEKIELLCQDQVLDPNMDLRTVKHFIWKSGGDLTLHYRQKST

remaining activity at 1 µM (UCHL1): 103%
remaining activity at 10 µM (UCHL1): 98.5%
remaining activity at 100 µM (UCHL1): 96.3%
remaining activity at 1 µM (USP1/UAF1): 98.6%
remaining activity at 10 µM (USP1/UAF1): 95.6%
remaining activity at 100 µM (USP1/UAF1): 97.4%
remaining activity at 1 µM (AMSH-LP): 109%
remaining activity at 10 µM (AMSH-LP): 102%
remaining activity at 100 µM (AMSH-LP): 112%
remaining activity at 1 µM (OTUD6A): 103%
remaining activity at 10 µM (OTUD6A): 99.3%
remaining activity at 100 µM (OTUD6A): 101%
Structure (SMILES): CC(C)(C)NS(=O)(=O)c1ccc(NC(=O)[C@H](Cc2ccccc2)NC(=O)c2ccc(F)cc2)cc1 [compound 39, CMPD-39]

Source: publication PMC8645336, “Benchmarking a highly selective USP30 inhibitor for enhancement of mitophagy and pexophagy” (Life Science Alliance, 2021)
